# Laboratory results from patent publication US10087234B2, “Mimetic peptides” (LES HOPITAUX UNIVERSITAIRES DE GENEVE, priority 2012, dated 2018).
# Bridges are numbered along the chain shown (N, C = ends). Where no end group is shown, it is not given here. [ ]: non-standard residue; d: D form. R8 = C=CCCCCCC[C@@](C)(N)C(=O)O; S5 = C=CCCC[C@](C)(N)C(=O)O
# What was measured:
# [1] = system: anti-ApoA-I antibodies; assay: ELISA immunoreactivity of ApoA-I digestion fragments (epitope identification); type: binding, human; details: sera from 3 patients with high and 3 with low autoantibody titers
# Experimental: To identify specific endogenous epitopes of ApoA-I, the purified ApoA-I was submitted to enzymatic digestion, hydrolyzing the protein specifically at the carboxyl side of lysine or at the carboxylic side of arginine, followed by peptide separation and purification by reversed phase-high performance liquid chromatography and peptide identification by mass spectrometry. The immunoreactivity to the digested protein and each fraction were tested by ELISA using serum samples from 3 patients with high titers and serum samples from 3 patients with low titers of autoantibodies.
# For ApoA-I digested at lysine residues, the enzyme Endoproteinase Lys-C(Roche Applied Science) was used (amount of enzyme 1:50 was 1/50 of protein by weight, incubation for 18 h at 37° C., pH 8.5). ApoA-I digestion with Lys-C allowed identification of fractions 70 and 71 (FIG. 8) containing a previously unreported immunoreactive peptide epitope of amino acid sequence corresponding to amino acid residues 141-182 relative to mature amino acid sequence of ApoA-I of SEQ ID NO: 1, comprising the region derived from helix D of SEQ ID NO: 5 with a deletion of the last 2 amino acids of SEQ ID NO: 5. The amino acid sequence of this epitope is SEQ ID NO: 21.
# In order to generate peptide fragments cleaved at arginine residues the conventional way would to use the enzyme ArgC. However, ArgC enzyme has a recognized lack of specificity, generating tryptic peptides, which abolished the immunoreactivity. […] This approach allowed identification of fractions 74 and 80 (FIG. 9) containing another immunoreactive peptide epitope of amino acid sequence corresponding to amino acid residues 216-243 relative to mature amino acid sequence of ApoA-I of SEQ ID NO: 1, comprising the region 1 derived from helix F of SEQ ID NO: 8. The amino acid sequence of this epitope is SEQ ID NO: 25.
# [2] = system: anti-ApoA-I antibodies; assay: Competition ELISA on plates coated with intact ApoA-I; type: binding, human
# Experimental: Competition ELISA experiments using selected synthetic peptides were also carried out. Synthetic peptides (dissolved in PBS with 2% bovine serum albumin (BSA) at different concentrations were co-incubated with patient sera containing high levels of anti-ApoA-I IgG for 2 h at room temperature, before being added to the wells coated with purified, human-derived delipidated ApoA-I as described above, prior to development of the assay as described above.
# In competition ELISA assays, serum from a patient known to be positive for anti-ApoA-I antibodies was preincubated with peptide F3L1 at different concentrations as indicated in FIG. 3 and then added to ELISA plates coated with intact ApoA-I, with the subsequent assay steps carried out according to the standard protocol.
# [3] = system: Human monocyte-derived macrophages (HMDMs); assay: Anti-ApoA-I IgG-related pro-inflammatory response (TNF-α production); type: cell-based
# Experimental: Human monocyte-derived macrophages (HMDMs) were obtained by treating human monocytes with interferon (IFN)-γ for 24 hours as previously described (Pagano et al, 2012, J Intern Med). HMDMs were then stimulated in 96-well trays for 24 h with increasing concentrations (5-40 μg/mL) of either polyclonal anti-human ApoA-I (Academy Bio-Medical Company, Houston, Tex., USA) or control antibody (Meridian Life Science, Saco, Me., USA), with IgG from pool+ or pool− (500 μg/mL). In this model, LPS-free anti-ApoA-I IgG has been show to promote the production of TNF-α and IL-6 in a dose dependent manner, with an optimal stimulation at 40 μg/ml (Pagano et al, 2012, J Intern Med).
# For competition inhibition experiments, synthetic peptides were co-incubated with 40 μg/ml polyclonal anti-ApoA-I IgG for 2 h at room temperature prior to addition to HMDMs in 96-well plates, and followed by the assessment of IL-6 and TNF-α levels in cell supernatants using Luminex MAP™ Technology. Experiments were performed with blood from three different donors.
# [4] = system: Neonatal rat ventricular cardiomyocytes (NRVC); assay: Anti-ApoA-I IgG-related chronotropic response (beating frequency); type: cell-based
# Description: Neonatal rat ventricular cardiomyocytes (NRVC) were isolated from ventricles of 1-2 day-old Wistar rats by digestion with low trypsin-EDTA and type 2 collagenase. Animals were killed by decapitation without any anesthesia, analgesia, or administration of neuromuscular blocking agents, in conformity with the Guide for the Care and Use of Laboratory Animals published by the NIH (publication 85-23) and with the authorization (1012/3134/0-R) of the local county veterinary office. Freshly isolated cells were seeded in plastic flasks to allow selective adhesion of cardiac fibroblasts. Thereafter cardiomyocytes were decanted from the flasks and distributed into laminin-coated 90 mm petri dishes.
# After 1-2 days' culture, cells were incubated at time intervals with the appropriate concentration of monoclonal anti-ApoA-I IgG (Abcam, Nottingham, UK) or vehicle in serum-free DMEM. The beating frequency of spontaneously contracting small cell monolayers was determined immediately at the end of the pre-incubation period (t=0) and at different times after the addition of various substances. Frequency determinations were performed by a technician (unaware of the experimental conditions) using a light microscope to count the number of contractions per time unit in three different locations of the dish. The regularity of the cell contractions has been previously assessed by monitoring cytosolic-free calcium fluctuations with fluorescent calcium probes (Maturana et al, 2009, Endocrinology 150:3726-3734). […] Competition inhibition experiments with synthetic peptides were performed using the same experimental conditions. Synthetic peptides were co-incubated with 10 μg/ml monoclonal anti-ApoA-I (Abcam, Nottingham, UK) for 2 h at room temperature, before being added to NRVC in dishes, with beating frequency determined as described above.
# [5] = CD spectroscopy to determine helical content; type: physicochemical; details: troughs at 208 and 222 nm, in comparison to non-stapled control peptide F3
# Experimental: Circular dichroism (CD) spectra from 185 to 240 nm were collected on a Jasco J-815 spectropolarimeter at 20° C. A typical sample was prepared by dissolving lyophilized peptide in 25% trifluoroethanol in water to obtain a concentration of 2 mM, then diluting this solution 20-fold in water and loading in a quartz cuvette (0.2 cm path length). Baseline CD spectra for 1.25% TFE in water was subtracted from the experimental spectra. Data were normalized by calculating the mean residue ellipticity at wavelength 222 nm, (θ)mrw, λ.
# [6] = serum from 3 anti-ApoA-I positive patients, FIG. 5
Substance,immunoreactivity to anti-ApoA-I antibodies [1],alpha-helical content [5],further results
"GLLPVLESFKVSFLSALEEYTKKLNT (not fully specified (bridges)) [SEQ ID NO: 9, Region 2 derived from helix F]",more immunoreactive,,
Ac-GLLPVLESFKVSFLSALEXaaYTKXaaLNT-NH2 (Ac-GLLPVLESFKVSFLSALEEYTKKLNT-NH2; lactam 19-23; SMILES CC(=O)NCC(=O)N[C@@H](CC(C)C)C(=O)N[C@@H](CC(C)C)C(=O)N1CCC[C@H]1C(=O)N[C@H](C(=O)N[C@@H](CC(C)C)C(=O)N[C@@H](CCC(=O)O)C(=O)N[C@@H](CO)C(=O)N[C@@H](Cc1ccccc1)C(=O)N[C@@H](CCCCN)C(=O)N[C@H](C(=O)N[C@@H](CO)C(=O)N[C@@H](Cc1ccccc1)C(=O)N[C@@H](CC(C)C)C(=O)N[C@@H](CO)C(=O)N[C@@H](C)C(=O)N[C@@H](CC(C)C)C(=O)N[C@@H](CCC(=O)O)C(=O)N[C@H]1CCC(=O)NCCCC[C@@H](C(=O)N[C@@H](CC(C)C)C(=O)N[C@@H](CC(N)=O)C(=O)N[C@H](C(N)=O)[C@@H](C)O)NC(=O)[C@H](CCCCN)NC(=O)[C@H]([C@@H](C)O)NC(=O)[C@H](Cc2ccc(O)cc2)NC1=O)C(C)C)C(C)C) [F3L1],,increased alpha-helical content,"inhibition of binding of patient serum IgG to intact ApoA-I [2, 6]: competes effectively; inhibition of binding of patient serum IgG to intact ApoA-I ([2]; serum from one anti-ApoA-I positive patient, FIG. 4): capable of competitively inhibiting; effect on TNF-α production induced by anti-ApoA-I IgG ([3]; polyclonal anti-ApoA-I IgG 40 μg/ml pre-incubated with peptide 2 h, FIG. 6A): abrogated; effect on TNF-α production induced by pool of IgG from anti-ApoA-I positive patients ([3]; pooled patient IgG pre-incubated with peptide, FIG. 6B): same effect; effect on anti-ApoA-I IgG related chronotropic response ([4]; antibody pre-incubated with peptide 75 μg/ml for 2 h, FIG. 7): fully abrogated; basal frequency contraction rate ([4]; peptide added alone): did not alter; contraction rate in the presence of 10 nM aldosterone ([4]; peptide added alone, 10 nM aldosterone): did not alter"
Ac-VLESFKVSXaaLSALEEXaaTKKLNT-NH2 (Ac-VLESFKVS[R8]LSALEE[S5]TKKLNT-NH2; staple 9-16) [F4S2B],,increased alpha-helical content,
Ac-GLLPVLESFKVSFLSXaaLEEYTKXaaLNT-NH2 (Ac-GLLPVLESFKVSFLS[R8]LEEYTK[S5]LNT-NH2; staple 16-23) [F3S2A],,increased alpha-helical content,
"amino acid residues 189-215 of mature ApoA-1: peptide corresponding to amino acid residues 189-215 of mature ApoA-1 of SEQ ID NO: 1, containing helix E (LAEYHAKATEHLSTLSEKAKPALEDLR; UniProt P02647 213-239, looked up, fragment)",less immunoreactive,,
Ac-VLESFKVSFLSALEXaaYTKXaaLNT-NH2 (Ac-VLESFKVSFLSALEEYTKKLNT-NH2; lactam 15-19; SMILES CC(=O)N[C@H](C(=O)N[C@@H](CC(C)C)C(=O)N[C@@H](CCC(=O)O)C(=O)N[C@@H](CO)C(=O)N[C@@H](Cc1ccccc1)C(=O)N[C@@H](CCCCN)C(=O)N[C@H](C(=O)N[C@@H](CO)C(=O)N[C@@H](Cc1ccccc1)C(=O)N[C@@H](CC(C)C)C(=O)N[C@@H](CO)C(=O)N[C@@H](C)C(=O)N[C@@H](CC(C)C)C(=O)N[C@@H](CCC(=O)O)C(=O)N[C@H]1CCC(=O)NCCCC[C@@H](C(=O)N[C@@H](CC(C)C)C(=O)N[C@@H](CC(N)=O)C(=O)N[C@H](C(N)=O)[C@@H](C)O)NC(=O)[C@H](CCCCN)NC(=O)[C@H]([C@@H](C)O)NC(=O)[C@H](Cc2ccc(O)cc2)NC1=O)C(C)C)C(C)C) [F4L1],,increased alpha-helical content,
LSPLGEEMRDRARAHVDALRTHLAPYSDELRQRLAARLEALK (D2) [SEQ ID NO: 21],immunoreactive,,
QGLLPVLESFKVSFLSALEEYTKKLNTQ (F5) [SEQ ID NO: 25],immunoreactive,,
"Ac-KELYLLKFTVESKVGSTELPLNFSLA-NH2 [scrambled F3, reference compound]",,,"inhibition of binding of patient serum IgG to intact ApoA-I [2, 6]: absence of dose-dependent inhibition"
EEMRDRARAHVDALRTHLAPYSDELRQRLAARLEALKEN (Region derived from Helix D of ApoA-I) [SEQ ID NO: 5],more immunoreactive,,
"GLLPVLESFKVSFLSALEEYTKKLNT (Ac-GLLPVLESFKVSFLSALEEYTKKLNT-NH2) [F3, reference compound]",,,"inhibition of binding of patient serum IgG to intact ApoA-I [2, 6]: effect observed"
"VLESFKVSFLSALEEYTKKLNT (not fully specified (bridges)) [SEQ ID NO: 8, Region 1 derived from helix F]",more immunoreactive,,
